{"source": "patent US12479856B2", "about": "“Pharmaceutical compounds for the treatment of complement mediated disorders” (Achillion Pharmaceuticals, Inc., priority 2019, dated 2025)", "data": [{"biological_target": "T1, Human complement C1s enzyme (Homo sapiens, UniProt P09871)", "T1 construct": "purified from human serum, Complement Technology, Inc; purchased Complement Technology, Inc; host or cells: human serum (plasma-derived natural protein)", "T1 sequence (P09871 438-688 limits assumed)": "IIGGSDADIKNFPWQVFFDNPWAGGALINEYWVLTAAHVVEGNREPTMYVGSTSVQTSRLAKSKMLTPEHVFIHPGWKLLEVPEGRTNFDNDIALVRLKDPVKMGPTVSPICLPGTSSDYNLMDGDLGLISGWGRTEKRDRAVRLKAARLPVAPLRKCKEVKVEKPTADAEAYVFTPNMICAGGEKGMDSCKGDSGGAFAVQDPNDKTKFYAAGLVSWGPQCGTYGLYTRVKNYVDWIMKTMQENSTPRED", "T1 sequence (P09871 16-437 partner limits assumed)": "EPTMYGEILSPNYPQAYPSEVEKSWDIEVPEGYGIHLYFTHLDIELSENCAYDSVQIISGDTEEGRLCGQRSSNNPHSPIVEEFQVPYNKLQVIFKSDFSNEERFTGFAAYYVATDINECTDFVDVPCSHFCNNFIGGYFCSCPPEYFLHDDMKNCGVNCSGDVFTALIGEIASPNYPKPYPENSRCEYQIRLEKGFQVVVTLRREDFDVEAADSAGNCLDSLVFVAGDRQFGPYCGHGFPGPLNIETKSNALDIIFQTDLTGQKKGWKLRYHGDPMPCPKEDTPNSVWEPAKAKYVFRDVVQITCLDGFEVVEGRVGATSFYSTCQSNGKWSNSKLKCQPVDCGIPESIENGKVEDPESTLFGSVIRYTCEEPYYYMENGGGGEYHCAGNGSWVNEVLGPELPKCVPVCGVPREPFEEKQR", "assay": "Human C1s Enzyme Assay", "format": "biochemical", "settings": "Table 2; C1s purified from human serum, 1.16 nM; substrate Z-L-Lys-SBzl; read-out: C1s Protease Activity", "outline": "(§1)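 Serum-purified human C1s (1.16 nM) preincubated 5 min at RT with compound in 50 mM Tris, 1 M NaCl, pH 7.5. Z-L-Lys-SBzl and DTNB (100 μM each) then added; A405 followed every 30 s for 30 min. IC50 from nonlinear regression of reaction rates versus compound concentration.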", "units": {"IC50": "nM"}, "values": [{"smiles": "C[C@H](OCc1ccccc1)[C@H](OCc1ccccc1)[C@@H](OCc1ccccc1)[C@H](CN(CC(=O)N1CC2(C[C@H]1C(=O)NCc1nc(C(=N)N)cs1)OCCO2)C(=O)OCc1ccccc1)OCc1ccccc1", "note": "[Compound 89, benzyl (2-((S)-8-(((4-carbamimidoylthiazol-2-yl)methyl)carbamoyl)-1,4-dioxa-7-azaspiro[4.4]nonan-7-yl)-2-oxoethyl)((2S,3S,4S,5S)-2,3,4,5-tetrakis(benzyloxy)hexyl)carbamate]", "IC50": "> 1000"}]}, {"biological_target": "T1, Human complement C1s enzyme", "assay": "Human C1s Enzyme Assay", "format": "biochemical", "settings": "Table 3; C1s purified from human serum, 1.16 nM; substrate Z-L-Lys-SBzl; read-out: C1s Protease Activity", "outline": "as §1", "units": {"IC50": "nM"}, "values": [{"smiles": "N=C(N)c1csc(NC(=O)[C@@H]2CC3(CN2C(=O)CNC(=O)c2ccc(Oc4ccccc4)cc2)OCCO3)c1", "note": "[Compound 91, (S)-N-(4-carbamimidoylthiophen-2-yl)-7-((4-phenoxybenzoyl)glycyl)-1,4-dioxa-7-azaspiro[4.4]nonane-8-carboxamide]", "IC50": "> 1000"}, {"smiles": "N=C(N)c1ccc(CNC(=O)[C@@H]2CC3(CN2C(=O)CNC(=O)c2ccc(Oc4ccccc4)cc2)OCCO3)s1", "note": "[Compound 92, (S)-N-((5-carbamimidoylthiophen-2-yl)methyl)-7-((4-phenoxybenzoyl)glycyl)-1,4-dioxa-7-azaspiro[4.4]nonane-8-carboxamide]", "IC50": "< 100"}, {"smiles": "C[C@@]12C[C@@H]1N(C(=O)CNC(=O)c1ccc(Oc3ccccc3)cc1)[C@H](C(=O)NCc1cc(C#N)cs1)C2", "note": "[Compound 93, (1S,3S,5S)-N-((4-cyanothiophen-2-yl)methyl)-5-methyl-2-((4-phenoxybenzoyl)glycyl)-2-azabicyclo[3.1.0]hexane-3-carboxamide]", "IC50": "> 1000"}, {"smiles": "C[C@@]12C[C@@H]1N(C(=O)CNC(=O)c1ccc(Oc3ccccc3)cc1)[C@H](C(=O)NCc1cc(/C(N)=N/O)cs1)C2", "note": "[Compound 94, (1S,3S,5S)-N-((4-((Z)-N′-hydroxycarbamimidoyl)thiophen-2-yl)methyl)-5-methyl-2-((4-phenoxybenzoyl)glycyl)-2-azabicyclo[3.1.0]heptane-3-carboxamide]", "IC50": "> 1000"}, {"smiles": "C[C@@]12C[C@@H]1N(C(=O)CNC(=O)c1ccc(Oc3ccc(S(F)(F)(F)(F)F)cc3)cc1)[C@H](C(=O)NCc1cc(C(=N)N)cs1)C2", "note": "[Compound 95, (1S,3S,5S)-N-((4-carbamimidoylthiophen-2-yl)methyl)-5-methyl-2-((4-(4-(pentafluoro-16-sulfaneyl)phenoxy)benzoyl)glycyl)-2-azabicyclo[3.1.0]hexane-3-carboxamide]", "IC50": "< 100"}, {"smiles": "N=C(N)c1csc(CNC(=O)[C@@H]2C[C@@H](c3ccccc3)CN2C(=O)CNC(=O)c2ccc(Oc3ccccc3)cc2)c1", "note": "[Compound 97, (2S,4S)-N-((4-carbamimidoylthiophen-2-yl)methyl)-1-((4-phenoxybenzoyl)glycyl)-4-phenylpyrrolidine-2-carboxamide]", "IC50": "< 100"}, {"smiles": "N=C(N)c1csc(CNC(=O)[C@@H]2C[C@@H](C(F)(F)F)CN2C(=O)CNC(=O)c2ccc(Oc3ccccc3)cc2)c1", "note": "[Compound 98, (2S,4R)-N-((4-carbamimidoylthiophen-2-yl)methyl)-1-((4-phenoxybenzoyl)glycyl)-4-(trifluoromethyl)pyrrolidine-2-carboxamide]", "IC50": "< 100"}, {"smiles": "N=C(N)c1csc(CNC(=O)[C@@H]2C[C@H](C(F)(F)F)CN2C(=O)CNC(=O)c2ccc(Oc3ccccc3)cc2)c1", "note": "[Compound 100, (2S,4S)-N-((4-carbamimidoylthiophen-2-yl)methyl)-1-((4-phenoxybenzoyl)glycyl)-4-(trifluoromethyl)pyrrolidine-2-carboxamide]", "IC50": "< 100"}, {"smiles": "N=C(N)c1csc(CNC(=O)[C@@H]2C[C@@H](OC(F)F)CN2C(=O)CNC(=O)c2ccc(Oc3ccccc3)cc2)c1", "note": "[Compound 101, (2S,4R)-N-((4-carbamimidoylthiophen-2-yl)methyl)-4-(difluoromethoxy)-1-((4-phenoxybenzoyl)glycyl)pyrrolidine-2-carboxamide]", "IC50": "< 100"}, {"smiles": "N=C(N)c1csc(CNC(=O)[C@@H]2C[C@@H]3CCCC[C@@H]3N2C(=O)CNC(=O)c2ccc(Oc3ccccc3)cc2)c1", "note": "[Compound 102, (2S,3aS,7aS)-N-((4-carbamimidoylthiophen-2-yl)methyl)-1-((4-phenoxybenzoyl)glycyl)octahydro-1H-indole-2-carboxamide]", "IC50": "< 100"}, {"smiles": "N=C(N)c1csc(CNC(=O)[C@@H]2C[C@H](Oc3ccc(F)cc3)CN2C(=O)CNC(=O)c2ccc(Oc3ccccc3)cc2)c1", "note": "[Compound 103, (2S,4S)-N-((4-carbamimidoylthiophen-2-yl)methyl)-4-(4-fluorophenoxy)-1-((4-phenoxybenzoyl)glycyl)pyrrolidine-2-carboxamide]", "IC50": "< 100"}, {"smiles": "Cc1cccc(O[C@H]2C[C@@H](C(=O)NCc3cc(C(=N)N)cs3)N(C(=O)CNC(=O)c3ccc(Oc4ccccc4)cc3)C2)c1", "note": "[Compound 104, (2S,4S)-N-((4-carbamimidoylthiophen-2-yl)methyl)-1-((4-phenoxybenzoyl)glycyl)-4-(m-tolyloxy)pyrrolidine-2-carboxamide]", "IC50": "< 100"}, {"smiles": "Cc1ccccc1O[C@H]1C[C@@H](C(=O)NCc2cc(C(=N)N)cs2)N(C(=O)CNC(=O)c2ccc(Oc3ccccc3)cc2)C1", "note": "[Compound 105, (2S,4S)-N-((4-carbamimidoylthiophen-2-yl)methyl)-1-((4-phenoxybenzoyl)glycyl)-4-(o-tolyloxy)pyrrolidine-2-carboxamide]", "IC50": "< 100"}, {"smiles": "N=C(N)c1csc(CNC(=O)[C@@H]2C[C@](F)(CF)CN2C(=O)CNC(=O)c2ccc(Oc3ccccc3)cc2)c1", "note": "[Compound 106, (2S,4R)-N-((4-carbamimidoylthiophen-2-yl)methyl)-4-fluoro-4-(fluoromethyl)-1-((4-phenoxybenzoyl)glycyl)pyrrolidine-2-carboxamide]", "IC50": "< 100"}, {"smiles": "C[C@@]12C[C@@H]1N(C(=O)CNC(=O)c1ccc(Oc3ccccc3)cc1)[C@H](C(=O)NCc1ccc(C(=N)N)s1)C2", "note": "[Compound 107, (1S,3S,5S)-N-((5-carbamimidoylthiophen-2-yl)methyl)-5-methyl-2-((4-phenoxybenzoyl)glycyl)-2-azabicyclo[3.1.0]hexane-3-carboxamide]", "IC50": "< 100"}, {"smiles": "N=C(N)c1csc(CNC(=O)[C@@H]2C[C@H](Oc3cccc(F)c3)CN2C(=O)CNC(=O)c2ccc(Oc3ccccc3)cc2)c1", "note": "[Compound 108, (2S,4S)-N-((4-carbamimidoylthiophen-2-yl)methyl)-4-(3-fluorophenoxy)-1-((4-phenoxybenzoyl)glycyl)pyrrolidine-2-carboxamide]", "IC50": "< 100"}]}]}
